Data on one compound can be found in article PMC10166615 (Bioorganic & Medicinal Chemistry, 2023).

This assay concerns the target SARS-CoV-2 3CLpro (Severe acute respiratory syndrome coronavirus 2, UniProt P0DTD1). In words: biochemical.
The mark [1] stands for this setting: read-out: SARS-CoV-2 3CLpro Inhibition (%).

Usually IC50 stands for the midpoint of a concentration-inhibition curve. Low readings indicate inhibition by little substance, high ones a need for much substance. A word on the inhibition: it is the change of the read-out against control, counted positive when it falls. `CC(C)(C)[C@H](NC(=O)C(F)(F)F)C(=O)N1C[C@@H]2CCC[C@@H]2[C@H]1C(=O)N[C@H](C#N)C[C@@H]1CCNC1=O` [1a, (1S,3aR,6aS)-N-((S)-1-cyano-2-((S)-2-oxopyrrolidin-3-yl)ethyl)-2-((S)-3,3-dimethyl-2-(2,2,2-trifluoroacetamido)butanoyl)octahydrocyclopenta[c]pyrrole-1-carboxamide] registered an IC50 of 18.1 ± 2.35 nM. Moreover, under setting [1], the inhibition at 0.02 µM worked out at 24%, the inhibition at 0.1 µM was 82.5%, the inhibition at 1 µM came out at 88.9% and the inhibition at 10 µM was found to be 88.3%.
